The values that follow come from article PMC4039224, “Cadherin-11 in poor prognosis malignancies and rheumatoid arthritis: common target, common therapies” (Oncotarget, 2013).

Experiment [1] has as its target T1, mouse CDH11 (EC1-2 domain) (Mus musculus, UniProt P55288).
T1 construct: extracellular domains EC1-EC2 only; wild-type soluble EC1-2, and C-terminally cysteine-tagged EC1-2 immobilised on the SPR chip; forms homodimer
T1 sequence (P55288 54-268 limits assumed): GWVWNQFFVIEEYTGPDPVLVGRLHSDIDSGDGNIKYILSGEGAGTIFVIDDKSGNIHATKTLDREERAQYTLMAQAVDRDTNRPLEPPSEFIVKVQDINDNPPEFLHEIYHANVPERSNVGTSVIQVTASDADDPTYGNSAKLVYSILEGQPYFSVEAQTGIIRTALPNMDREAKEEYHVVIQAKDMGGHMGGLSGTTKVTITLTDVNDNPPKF
In words: native gel, dimer fraction. It is filed as binding. To be noted: 1:1 molar ratio with purified CDH11 EC1-2, compound in DMSO; inhibits homodimerization; species of the gel protein not stated again.

Experiment [2] addresses wild type mouse cadherin-11 (CDH11) EC1-2 (mouse). In words: native gel or EMSA; purified CDH11 EC1-2 without and with celecoxib (in DMSO, 1:1 molar ratio); monomer and dimer fractions. (A gel shift assay detects complexes by their altered migration in electrophoresis.)
The target of experiment [3] is T1, mouse CDH11 (EC1-2 domain). In words: SPR competition of homophilic CDH11 binding, Biacore T200 CM5. Conditions: 6.25-200 uM compound co-injected with 2.5 uM EC1-2; pH 7.4 HEPES, 150 mM NaCl, 3 mM CaCl2, 1% DMSO; inhibits homodimerization, W-binding pocket (modelled); salt form ambiguous (b61 vs Table 1).

In the case of `Cc1ccc(-c2cc(C(F)(F)F)nn2-c2ccc(S(N)(=O)=O)cc2)cc1` [celecoxib, 4-[5-(4-methylphenyl)-3-(trifluoromethyl)pyrazol-1-yl]benzenesulfonamide], the “native gel, dimer fraction” value in experiment [1] is listed as “Note that celecoxib reduces the dimer fraction”.

Regarding “wild type mouse cadherin-11 (CDH11) EC1-2 (domain or fragment)”, the stoichiometry N in experiment [2] turned out to be 2.

Consider `Oc1ccc(-c2cccnc2-c2ccccc2)cc1` [Sd-133, 4-(2-phenyl-3-pyridyl)phenol], for which the “SPR competition of homophilic CDH11 binding, Biacore T200 CM5” value in experiment [3] was “Sd-133 competed with CDH11 (ligand) in binding to immobilized CDH11 protein”.

By stoichiometry N is commonly meant a count of units in the complex or per binding partner.
